Measurements reported in US7488823B2, “Cyanoguanidines and cyanoamidines as ErbB2 and EGFR inhibitors” (Array Biopharma, Inc., priority 2003, dated 2009).

biological target: ErbB2 (Homo sapiens, UniProt P04626); assay: ErbB kinase ELISA on poly-Glu-Tyr 4:1 coated microtiter plates; format: biochemical; conditions: PGT substrate, ATP, baculovirus ErbB2, 30 minutes at room temperature, optical density at 450 nm
Experimental: The extent to which the compounds of the present invention modulate ErbB kinase activity can be determined using the following enzyme-linked immunosorbent assay (ELISA), which employs a microtiter plate coated with a protein tyrosine kinase specific polymer substrate. The phosphorylation reaction is performed on poly-Glu-Tyr 4:1 (PGT) coated microtiter plates in the presence on Mg^++, ATP and EGFR. The phosphorylated polymer substrate is detected with a phosphotyrosine specific monoclonal antibody conjugated to horseradish peroxidase (HRP). Chromogenic substrate (TMB) color is quantitiated by spectrophotometry.
The assay is performed in a 96-well microtiter plate (Immunlon 4, available from Dynex). To prepare the plate, 100 μL of 0.25 mg/mL Poly (Glu,Tyr) 4:1 Sodium Salt (available from Sigma, Catalog Number P0275) in phosphate buffered saline (PBS) is added to each well and the plates are sealed. Following incubation overnight at ambient temperature, this coating solution is removed and the plates are washed three times with 300 μL of 0.1% Tween 20 (available from Sigma, Catalog Number P2287) in PBS. If not using immediately, the coated microtiter plates may be stored at 2-8° C. with 150 μL of 0.1% Tween 20 in PBS in each well.
The compound to be tested is dissolved in DMSO at an initial concentration of 1.0 mM. This initial concentration is diluted 1:25 in DMSO, and the resulting solution is further serially diluted 1:5 eight times in DMSO. To 10 μL of the initial concentration and each dilution are added 240 μL Reaction Buffer (50 mM HEPES, 125 mM NaCl, 24 mM MgCl2, 0.1 mM Na3VO4 (boiled at pH 10 until colorless—approximately 10 minutes—and cooled prior to use), pH 7.3, filtered through a 0.2 micron filter). 25 μL of each compound solution (4% DMSO in Reaction Buffer for control) is placed in a separate microtiter plate well, along with 50 μL Reaction Buffer +ATP (15 μL 10 of mM ATP added to 5 mL Reaction Buffer) and 25 μL Reaction Buffer into which a catalytic amount of baculovirus ErbB2 has been added. The plate is then covered and incubated for 30 minutes at room temperature, after which time all liquid is aspirated from each well. The plate is washed three times with 300 μL of 0.1% Tween in PBS. Residual wash solution is removed by inverting the plate and blotting on a paper towel.
To each well is then added 100 μL of PBS containing 3% bovine serum albumin (protease-free, IgG-free, Jackson Catalog Number 001-000-162), 0.05% Tween 20 and 0.2 μg/mL anti-phosphotyrosine horseradisn peroxidase (available from Zymed, Laboratories, Inc., Catalog Number 03-7720). The plate is covered and incubated for 30 minutes at room temperature, after which time all liquid is aspirated from each well. The plate is washed three times with 300 μL of 0.1% Tween in PBS. Residual wash solution is removed by inverting the plate and blotting on a paper towel. To each well is then added 100 μL of TMB peroxidase substrate system (KPL Catalog Number 50-76-00), and the plate is allowed to incubate for 25 minutes at room temperature, at which time the reaction is stopped by the addition of 100 μL of 1M phosphoric acid to each well. The plate is tapped gently to ensure mixing.
Within about thirty minutes after the reaction is stopped, the optical density at 450 nm of each well is determined using a microtiter plate reader. A dose response curve is generated by plotting optical density versus compound concentration. IC50 is calculated from this curve using methods known in the art.

Chain of ErbB2 (P04626 23-1255): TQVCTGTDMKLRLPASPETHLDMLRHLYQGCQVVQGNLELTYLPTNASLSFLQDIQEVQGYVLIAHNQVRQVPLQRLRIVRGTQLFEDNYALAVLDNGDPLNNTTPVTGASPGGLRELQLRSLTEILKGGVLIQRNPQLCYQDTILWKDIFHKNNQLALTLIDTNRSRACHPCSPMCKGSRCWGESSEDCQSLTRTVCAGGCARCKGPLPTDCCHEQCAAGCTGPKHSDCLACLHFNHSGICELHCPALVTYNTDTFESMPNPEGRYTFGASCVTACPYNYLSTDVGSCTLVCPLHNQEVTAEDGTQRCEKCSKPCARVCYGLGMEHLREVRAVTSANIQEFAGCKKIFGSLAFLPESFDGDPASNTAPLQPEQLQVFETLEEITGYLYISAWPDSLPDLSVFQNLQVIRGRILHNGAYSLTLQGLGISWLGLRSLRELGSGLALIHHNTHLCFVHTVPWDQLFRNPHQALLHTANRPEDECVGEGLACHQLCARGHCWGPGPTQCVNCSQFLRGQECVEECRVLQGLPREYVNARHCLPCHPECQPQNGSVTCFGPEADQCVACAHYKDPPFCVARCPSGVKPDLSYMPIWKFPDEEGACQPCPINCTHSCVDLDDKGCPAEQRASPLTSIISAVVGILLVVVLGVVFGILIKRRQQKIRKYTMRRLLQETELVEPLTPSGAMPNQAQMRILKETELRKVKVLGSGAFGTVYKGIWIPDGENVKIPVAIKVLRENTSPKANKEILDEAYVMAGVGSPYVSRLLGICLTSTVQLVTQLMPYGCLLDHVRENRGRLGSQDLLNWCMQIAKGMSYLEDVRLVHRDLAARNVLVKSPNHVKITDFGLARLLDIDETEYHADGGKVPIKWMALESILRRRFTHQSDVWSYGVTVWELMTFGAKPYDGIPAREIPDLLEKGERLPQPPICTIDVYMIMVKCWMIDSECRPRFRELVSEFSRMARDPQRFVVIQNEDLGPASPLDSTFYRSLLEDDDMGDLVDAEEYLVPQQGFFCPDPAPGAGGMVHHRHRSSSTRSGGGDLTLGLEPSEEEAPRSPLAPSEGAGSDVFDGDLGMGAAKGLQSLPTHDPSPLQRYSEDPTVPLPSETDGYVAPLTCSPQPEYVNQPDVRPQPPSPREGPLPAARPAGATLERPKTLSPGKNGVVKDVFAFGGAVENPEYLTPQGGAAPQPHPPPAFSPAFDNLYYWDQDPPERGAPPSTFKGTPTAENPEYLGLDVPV

| Structure (SMILES) | IC50 |
| --- | --- |
| N#C/N=C(/NCC#Cc1ccc2ncnc(Nc3ccc(OCc4cccc(F)c4)c(Cl)c3)c2c1)NCCO [Example 2, N-(3-{4-[3-Chloro-4-(3-fluoro-benzyloxy)-phenylamino]-quinazolin-6-yl}-prop-2-ynyl)-N′-cyano-N″-3-(2-hydroxy-ethyl)guanidine] | 410 nM |
| CN/C(=N/C#N)NCCCOc1cc2c(Nc3ccc(OCc4cccc(F)c4)c(Cl)c3)ncnc2cc1OC [Example 8, N-(3-{4-[3-Chloro-4-(3-fluoro-benzyloxy)-phenylamino]-7-methoxy-quinazolin-6-yloxy}-propyl) -N′-cyano-N″-methylguanidine] | 40 nM |
| CN(C)/C(=N\C#N)NCC#Cc1ccc2ncnc(Nc3ccc(OCc4cccc(F)c4)c(Cl)c3)c2c1 [Example 1, N-(3-{4-[3-Chloro-4-(3-fluoro-benzyloxy)-phenylamino]-quinazolin-6-yl}-prop-2-ynyl)-N′-cyano-N″,N″-dimethylguanidine] | 85 nM |
| COc1cc2ncnc(Nc3ccc(OCc4ccccn4)c(Cl)c3)c2cc1OCCCN/C(=N\C#N)N(C)C [Example 7, N-(3-{4-[3-Chloro-4-(pyridin-2-ylmethoxy)-phenylamino]-7-methoxy-quinazolin-6-yloxy}-propyl)-N′-cyano-N″,N″-dimethylguanidine] | 33 nM |
| Cc1ccc(Oc2ccc(Nc3ncnc4ccc(-c5csc(CN/C(N)=N\C#N)n5)cc34)cc2C)cn1 [Example 5, N-cyano-N′-(4-{4-[3-Methyl-4-(6-methyl-pyridin-3-yloxy)-phenylamino]-quinazolin-6-yl}-thiazol-2-ylmethyl)guanidine] | 31 nM |
| COCCN(C)/C(=N/C#N)NC/C=C/c1ccc2ncnc(Nc3ccc4c(cnn4Cc4cccc(F)c4)c3)c2c1 [Example 10, N-cyano-N′-(3-{4-[1-(3-Fluoro-benzyl)-1H-indazol-5-ylamino]-quinazolin-6-yl}-allyl)-N″-(2-methoxy-ethyl)-N″-methylguanidine] | 17 nM |

Compounds with a lower IC50, results first:

| IC50 | Structure (SMILES) |
| --- | --- |
| 14 nM | COc1cc2ncnc(Nc3ccc(OCc4ccccn4)c(Cl)c3)c2cc1OCCCN/C(=N\C#N)N(C)CCN(C)C [Example 6, N-(3-{4-[3-Chloro-4-(pyridin-2-ylmethoxy)-phenylamino]-7-methoxy-quinazolin-6-yloxy}-propyl)-N′-cyano-N″-(2-dimethylamino-ethyl)-N″-methylguanidine] |
| 13 nM | N#C/N=C(\NCc1ccc(-c2ccc3ncnc(Nc4ccc(OCc5cccc(F)c5)c(Cl)c4)c3c2)o1)N1CCOCC1 [Example 4, N-(5-{4-[3-Chloro-4-(3-fluoro-benzyloxy)-phenylamino]-quinazolin-6-yl}-furan-2-ylmethyl)-N′-cyano-morpholine-4-carboxamidine] |
| 12 nM | N#C/N=C(\NCC#Cc1ccc2ncnc(Nc3ccc4c(cnn4Cc4cccc(F)c4)c3)c2c1)N1CCOCC1 [Example 9, N-cyano-N′-(3-{4-[1-(3-Fluoro-benzyl)-1 H-indazol-5-ylamino]-quinazolin-6-yl}-prop-2-ynyl)-morpholine-4-carboxamidine] |
| 8 nM | Cc1ccc(Oc2ccc(Nc3ncnc4ccc(C#CCN/C(N)=N/C#N)cc34)cc2C)cn1 [Example 3, N-cyano-N′-(3-{4-[3-Methyl-4-(6-methyl-pyridin-3-yloxy)-phenylamino]-quinazolin-6-yl}-prop-2-ynyl)guanidine] |
